Data as given in the supplement of paper PMC10307832.

Key:
Test in all cases: relative viability (nuclei count vs DMSO), 5 days (fraction); higher = more cells survive
[1] = compound: CC(C)C[C@H](NC(=O)[C@H](Cc1ccccc1)NC(=O)c1cnccn1)B(O)O [Bortezomib] + O=C(c1cc(Cc2n[nH]c(=O)c3ccccc23)ccc1F)N1CCN(C(=O)C2CC2)CC1 [Olaparib] (partner 8 µM)
How it was run: (§1)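 Cells from lung cancer lines were seeded into 1536-well plates and, one day later, dosed by pin tool. Treatments were either a single drug or a fixed dose of an anchor drug with five library-drug doses (not always all listed) in √10 steps. After 5 days, nuclei were stained in a one-step fixation (final 0.05% Triton X-100, 1% formaldehyde, 1 ug/ml Hoechst) and counted on 4× images, and relative viability is the treated-to-vehicle nuclei ratio, as the median of duplicate plates.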

[2] = compound: COC1=CC(c2cc3ccccc3[nH]2)=N/C1=C\c1[nH]c(C)cc1C [Obatoclax] + CCNC(=O)c1noc(-c2cc(C(C)C)c(O)cc2O)c1-c1ccc(CN2CCOCC2)cc1 [Luminespib] (partner 0.01 µM)
How it was run: as §1

[3] = compound: COC1=CC(c2cc3ccccc3[nH]2)=N/C1=C\c1[nH]c(C)cc1C [Obatoclax] + CC(C)C[C@H](NC(=O)[C@H](Cc1ccccc1)NC(=O)c1cnccn1)B(O)O [Bortezomib] (partner 0.002 µM)
How it was run: as §1

[4] = compound: CC(C)C[C@H](NC(=O)[C@H](Cc1ccccc1)NC(=O)c1cnccn1)B(O)O [Bortezomib] + COc1cccc2cc(-c3nc([C@H]4CC[C@H](C(=O)O)CC4)n4ncnc(N)c34)[nH]c12 [OSI-027] (partner 0.5 µM)
How it was run: as §1

Cell Line | relative viability ([1]; first compound 0.0002 µM) | relative viability ([1]; first compound 0.000632 µM) | relative viability ([1]; first compound 0.002 µM) | relative viability ([1]; first compound 0.006325 µM) | relative viability ([1]; first compound 0.02 µM) | relative viability ([2]; first compound 0.01 µM) | relative viability ([2]; first compound 0.03162 µM) | relative viability ([2]; first compound 0.3162 µM) | relative viability ([2]; first compound 1 µM) | relative viability ([3]; first compound 0.01 µM) | relative viability ([3]; first compound 0.03162 µM) | relative viability ([3]; first compound 0.3162 µM) | relative viability ([3]; first compound 1 µM) | relative viability ([4]; first compound 0.0002 µM) | relative viability ([4]; first compound 0.000632 µM) | relative viability ([4]; first compound 0.002 µM) | relative viability ([4]; first compound 0.006325 µM) | relative viability ([4]; first compound 0.02 µM) | relative viability ([2]; first compound 0.1 µM) | relative viability ([3]; first compound 0.1 µM)
NCI-H1792 | 0.415 | 0.313 | 0.531 | 0.062 | 0.046 | 0.419 | 0.474 | 0.376 | 0.394 | 0.992 | 0.926 | 0.917 | 0.975 | 0.687 | 0.577 | 0.563 | 0.654 | 0.497 |  | 
NCI-H1915 | 0.251 | 0.257 | 0.244 | 0.056 | 0.0357 | 0.725 | 0.664 | 0.713 | 0.796 | 1.05 | 0.748 | 1.01 | 0.975 | 0.582 | 0.507 | 0.613 | 0.186 | 0.0754 | 0.749 | 0.93
NCI-H1975 | 0.779 | 0.766 | 0.16 | 0.103 | 0.126 | 0.316 | 0.196 | 0.472 | 0.306 | 0.357 | 0.456 | 0.49 | 0.253 | 0.674 | 0.624 | 0.196 | 0.111 | 0.106 |  | 0.361
NCI-H1993 | 1.01 | 1.01 | 0.679 | 0.363 | 0.398 | 0.868 | 0.869 | 0.615 | 0.863 | 1.2 | 1.05 | 1.2 | 1.2 | 0.508 | 0.552 | 0.546 | 0.47 | 0.53 | 0.845 | 1.22
NCI-H2009 | 0.654 | 0.661 | 0.693 | 0.222 | 0.049 | 0.928 | 0.981 | 0.713 | 0.246 | 1.01 | 1.12 | 0.395 | 0.203 | 0.664 | 0.585 | 0.486 | 0.0717 | 0.084 | 0.993 | 0.764
NCI-H2023 | 0.427 | 0.473 | 0.485 | 0.0778 | 0.0633 | 0.57 | 0.799 | 0.257 | 0.107 | 1.03 | 1.08 | 0.675 | 0.425 | 0.464 | 0.373 | 0.43 | 0.0814 | 0.0616 | 0.556 | 0.808
NCI-H2085 | 0.8 | 0.802 | 0.688 | 0.232 | 0.211 | 0.389 | 0.432 | 0.283 | 0.347 | 1.06 | 1.1 | 0.88 | 0.427 | 0.684 | 0.675 | 0.787 | 0.286 | 0.204 | 0.44 | 0.93
